Measurements taken from patent US20240075004A1, “VERY-LONG-CHAIN POLYUNSATURATED FATTY ACIDS, ELOVANOID HYDROXYLATED DERIVATIVES, AND METHODS OF USE” (The Board of Supervisors of Louisiana State University and …, priority 2020, published 2024).

How the values were obtained:
RPE and PRC = experiment: Subretinal injection of OAβ in WT mice: fundus/OCT and ZO-1 whole flat mount of RPE; assay type: in vivo, C57BL/6J WT mice; conditions: for PRC degeneration (fundus, OCT): ELV injected alone (200 ng subretinal), six-month-old WT mice, 7 days; for RPE morphology (ZO-1 flat mount) / protection of PRC (OCT, PRC layer thickness): co-injected with OAβ, followed by topical application during 7 days
Experimental: All animal experiments were performed according to ARVO Statement for the Use of Animals in Ophthalmic and Vision Research, and the protocol was approved by LSU Health New Orleans' Institutional Animal Care and Use Committee (IACUC). 6-month-old 5×FAD mice (stock number: 34848-JAX, The Jackson Laboratory, Bar Harbor, ME, USA), co-overexpress FAD mutant forms of human amyloid precursor protein (the Swedish mutation: K670N, M671L; the Florida mutation: I716V; and the London mutation: V7171) and presenilin 1 (PS1, encoded by Psen1: M146L, L286V) transgenes under transcriptional control of the neuron-specific mouse Thy1 promoter. 5×FAD mice were hemizygotes with respect to the transgenes and non-transgenic WT littermates. Genotyping was performed by PCR of tail DNA. All analyses were carried out blind with respect to the mice genotype. For the subretinal injection, 6-month-old C57BL/6J mice were anesthetized by an intraperitoneal injection of ketamine/xylazine, pupils dilated with 1.0% tropicamide (Akorn, IL, USA); and 0.5% Proparacaine Hydrochloride (Akorn) was applied for topical anesthesia. Eyes were punctured with a 30-gauge needle between the corneoscleral junction and the ora serrata into the vitreous cavity without disturbing the lens. Compounds were delivered to the subretinal region using a 33-gauge blunt needle attached to a 5 μl Hamilton syringe (Hamilton Company, Reno, NV, USA) under a dissecting microscope. Non-injected mice were used as negative control while the PBS injected mice were used for sham. The injection volume was 2 μl containing PBS, 10 μM of OAβ, 10 μM of OAβ+200 ng ELV-N-32, 200 ng ELV-N-32 alone, 10 μM of OAβ+200 ng ELV-N-34 or 200 ng ELV-N-34 alone (n=12/group). All groups received topical drops: PBS only or ELV-N-32 (200 nM) or ELV-N-34 (200 nM), twice a day for 3 or 7 days.
For the whole mount RPE staining, eyeballs were enucleated and pre-fixed in 4% PFA for 15 min. Then the eye cup containing RPE sheet were fixed in 4% PFA for 30 min, washed in PBS 3× following the blocking step for 1 h at room temperature. The immunostaining was performed by incubating primary antibody (ZO-1) for 48 h at 4° C. Then the eye cups were washed 3× with PBS and incubated with the secondary antibody for 12 h at 4° C. The primary human RPE cells as well as mouse eye cups were embedded in ProLong™ Gold Antifade Mounting medium (Thermo Fisher Scientific) between two glass coverslips. Pictures were taken with Olympus FV1200 microscope (Olympus, Japan). Images were analyzed by software ImageJ (rsb.info.nih.gov/ij/).
7 days post-injection, mice were anesthetized with ip ketamine/xylazine, pupil dilated by topical 1.0% tropicamide and placed in a custom-built holder for OCT imaging (body temperature maintained at 38° C. with a heat pad). Retinas were imaged along the horizontal meridian through the optic nerve head using a Heidelberg Spectralis HRA OCT system (Heidelberg Engineering, Heidelberg, Germany). Axial resolution is […]. The raw OCT B-scans cross-sectional images were exported with the scale in m and opened in ImageJ (http//imagej.nih.gov/ij). The PRC layer thickness was defined as the width from the tip of the outer nuclear layer, right after the outer plexiform layer, to the outer segments of PRC. Three measurements were made on the same scan and averaged. Mean and standard error of the mean (SEM) were calculated (n=4/group). Students' T-test was used to calculate statistical significance and a P-value less than 0.05 was considered significant.

human RPE cells = experiment: Oxidative-stress and Erastin induced cell death in human RPE cells; assay type: cell-based
[1] = test system: pro-inflammatory transcriptome and pro-homeostatic pathways in RPE single-cells; experiment: UOS transcriptome in RPE single-cells; assay type: cell-based; conditions: 96 per sample
Source text: Dots in box plots represent expression of the gene for a single RPEC (total of 96 per sample). P<0.001 (***), P<0.01 (**), One-way Anova, with Post-Hoc Tukey HSD test for multiple comparisons.

ARPE-19 cells = experiment: Protein abundance and apoptosis in ARPE-19 cells undergoing UOS; assay type: cell-based; conditions: RPE cells under UOS; sodium salt forms
Experimental: ELV-N32 or ELV-N34 indicates the sodium salt forms, and ELV-N34-Me or ELV-N32-Me indicates the methyl ester forms. ELVs induces the following effects in ARPE-19 cells undergoing UOS: (panel a) Concentration-dependent (100 and 250 nM) upregulation of SIRT1. The results are the averages of three independent experiments; (panel b) upregulation of Iduna abundance; (panel c) increased abundance of anti-apoptotic proteins Bcl-2 and Bcl-xL; (panel d) decreased abundance of pro-apoptotic proteins Bax, (panel e) Bid and (panel f) Bim. (panel g) Concentration-dependent (100 and 250 nM) upregulation of Prohibitin (type-1) by ELVs takes place. (panel h) Concentration-dependent (50, 100, 250, and 500 nM) reduction of UOS-induced apoptosis. Error bars, SEM; *p<0.05.

[2] = test system: autophagy, UPR, MMP, senescence and inflammation genes in HNEpC; experiment: HNEpC challenged with HDM: gene expression; assay type: cell-based, human; conditions: 500 nM; HDM 30 μg/ml
Experimental: HDM triggered multiple signaling in human nasal epithelial cells. HNEpC challenged with HDM (D. farinae+D. pteronyssinus) (30 μg/ml) induces the expression of several genes related with autophagy (ATG3, ATG5, ATG7, BECLIN-1, and P62), unfolded protein response (UPR) (ATF6, CHOP, and IRE1) and matrix metalloproteinases (MMPs) (MMP8, MMP2, MMP9, MMP3, MMP12, TIMP1, and TIMP2). HDM stressors also induce the expression of senescence (P21, P16, P27, and P53) and inflammation genes (IL-1a, IL-6, and IL-10) on HNEpC. […] (*p<0.0001).

TP53 and IL8 = experiment: Human adipocytes treated with IL1β: TP53 and IL8 expression by Taqman Real time PCR; assay type: cell-based
Source text: A) experimental design. B) expression levels of TP53 and IL8 in human diabetic and non-diabetic adipocytes by the means of Tagman Real time PCR.

[3] = test system: degenerating neurons of hypothalamus; experiment: Fluoro-Jade B staining of organotypic slices of hypothalamus; assay type: cell-based; conditions: 500 nM, 48 h incubation, adult obese diabetic db/db mice
Source text: Fluoro-Jade b (F-Jb) stains degenerating neurons.

IL6 = IL6 (marker of SASP) induced by IL1β in diabetic hypothalamus; assay type: cell-based; conditions: diabetic db/db mice hypothalamus, different effects in female and male mice

| SMILES | PRC degeneration (fundus, OCT) (RPE and PRC) | RPE morphology (ZO-1 flat mount) (RPE and PRC) | protection of PRC (OCT, PRC layer thickness) (RPE and PRC) | oxidative-stress and Erastin induced cell deaths (human RPE cells) | UOS up-regulation of pro-inflammatory transcriptome and down-regulation of pro-homeostatic pathways [1] | abundance of cell damaging proteins (ARPE-19 cells) | abundance of pro-homeostatic proteins (ARPE-19 cells) | expression of MMP genes (MMP8, MMP2, MMP9, MMP3, MMP12, TIMP1, TIMP2) [2] | expression of inflammation / senescence-associated cytokine genes [2] | expression of senescence genes (P21, P16, P27; except P53) [2] | IL8 brought down (elevated by IL1β) (TP53 and IL8; 500 nM, both diabetic and non-diabetic adipocytes) | levels of TP53 mRNA (TP53 and IL8; human adipocytes from diabetic patient treated with IL1β) | effect of IL1β (expression levels of TP53 and IL8) (TP53 and IL8; human diabetic adipocytes) | Fluoro-Jade b (F-Jb) signal (neuroprotection) [3] | levels of IL6 (marker of SASP) (IL6) |
| --- | --- | --- | --- | --- | --- | --- | --- | --- | --- | --- | --- | --- | --- | --- | --- |
| CC/C=C\C[C@H](O)\C=C/C=C/C=C/[C@H](O)C/C=C\C/C=C\CCCCCCCCCCCCC(=O)O [ELV-N-32] | did not yield PRC degeneration | restoration of RPE morphology | protection of PRC | counteracted | suppress these changes | decrease abundance | enhance abundance |  |  |  |  |  |  |  |  |
| CC/C=C\C[C@H](O)\C=C/C=C/C=C/[C@H](O)C/C=C\C/C=C\CCCCCCCCCCCCCCC(=O)O [ELV-N-34] | did not yield PRC degeneration | restoration of RPE morphology | protection of PRC |  |  | decrease abundance | enhance abundance | inhibits these effects | inhibits these effects | inhibits these effects | around 40 folds | down to non-diabetic control levels | revert the effect | decrease of F-Jb signal | reduced |
